Measurements as given in patent US10336792B2, “Antimicrobial peptide dendrimers” (priority 2014, dated 2019).
Values after ≈ are worked out from the molar mass of the structure shown. Positions of bridges follow the written chain, without caps; N, C: chain ends. Non-standard residues stand in square brackets, D forms with d. Residues, ends and D or L forms follow the SMILES beside them. Groups on a side chain read outwards from the residue. Chains are numbered I, II in the order given. *: point of attachment. Decanoyl = CCCCCCCCCC(=O)*; Orn = NCCC[C@H](N)C(=O)O; Dab = NCC[C@H](N)C(=O)O

Experiments:
P. aeruginosa PA01 (WT) = assay type: cell-based, Pseudomonas aeruginosa; details: WT
Procedure: (§1) Antimicrobial activity was assayed against P. aeruginosa PA01 (WT), P. aeruginosa PT1482 (A-), PT1485 (A-B-), PT1149 (A-B-C-algC), PT331 (Z61) (LPS mutants), P. aeruginosa PEJ2.6, PEJ9.1, ZEM1.A, ZEM9.A (clinical isolates from Université de Genève/Centre Médical Universitaire), Burkholderia cenocepacia (B. ceno), Staphylococcus aureus (S. aureus, MRSA strain) and Acinetobacter baumannii (A. baum) (clinical isolates from Université de Genève/Centre Médical Universitaire). To determine the minimal inhibitory concentration (MIC), microdilution broth method was used. A colony of bacteria was grown in MH-medium overnight at 37° C. The samples were prepared as stock solutions of 8 mg mL^−1 in H2O, diluted to the beginning concentration of 32, 64, 128 or 256 μg/mL in 300 μL MH-medium, added to the first well of 96-well microtiterplate (TPP, untreated) and diluted serially by ½. The concentration of the bacteria was quantified by measuring absorbance at 600 nm and diluted to OD600=0.022 in MH-medium. The sample solutions (150 μL) were mixed with 4 μL diluted bacterial suspension with a final inoculation of about of 5×10^5 CFU. The plates were incubated at 37° C. until satisfactory growth (˜18 h). For each test, two columns of the plate were kept for sterility control (SC, broth only) and growth control (GC, broth with bacterial inoculums, no antibiotics). The minimal inhibitory concentration (MIC) was defined as the lowest concentration of the antimicrobial substance (peptide dendrimer) that inhibited visible growth of the tested bacteria with the unaided eye. For microbiological study Polymyxin was used as references.

PAO1 = assay type: cell-based, Pseudomonas aeruginosa; details: PAO1
Procedure: as §1

Acinetobacter baumannii = assay type: cell-based
Procedure: as §1
(§2) Ten of the most promising compounds (FIG. 5) were tested for their efficiency against four clinical isolates of P. aeruginosa (ZEM9.A, ZEM1.A, PEJ2.6, PEJ9.1), one S. aureus (COL, MRSA reference strain) and one A. baumannii strain. For the experiments in Genève the peptide dendrimers and reference compounds (polymyxin) were dissolved in PBS and the assay was carried out in Müller-Hinton (MH) broth with a two-fold dilution.

[1] = tested on: Staphylococcus aureus (COL, MRSA reference strain); assay type: cell-based; details: COL, reference strain
Procedure: as §1, §2

[2] = tested on: P. aeruginosa PEJ2.6, PEJ9.1, ZEM1.A, ZEM9.A (clinical isolates); assay type: cell-based, Pseudomonas aeruginosa; details: PEJ2.6, PEJ9.1, ZEM1.A, ZEM9.A (clinical isolates)
Procedure: as §1, §2

Row | Structure (SMILES) | MIC (MH) (P. aeruginosa PA01 (WT)) [µg/mL] | MIC PAO1 (P. aeruginosa PA01 (WT)) | MIC (MH + 30% human serum) (PAO1) [µg/mL] | MIC A. baumannii ATCC19606 (Acinetobacter baumannii) [µg/mL] | MIC S. aureus COL [1] [µg/mL] | MIC P. aeruginosa MDR clinical isolate PEJ2.6 [2] [µg/mL] | MIC P. aeruginosa MDR clinical isolate PEJ9.1 [2] [µg/mL] | MIC P. aeruginosa MDR clinical isolate ZEM1A [2] [µg/mL] | MIC P. aeruginosa MDR clinical isolate ZEM9A [2] [µg/mL]
1 | CCCCCCCCCC(=O)NCCCC[C@H](NC(=O)[C@H](CC(C)C)NC(=O)[C@H](CCCCN)NC(=O)[C@H](CCCCNC(=O)[C@H](CC(C)C)NC(=O)[C@H](CCCCN)NC(=O)[C@H](CCCCNC(=O)[C@H](CC(C)C)NC(=O)[C@@H](N)CCCCN)NC(=O)[C@H](CC(C)C)NC(=O)[C@@H](N)CCCCN)NC(=O)[C@H](CC(C)C)NC(=O)[C@H](CCCCN)NC(=O)[C@H](CCCCNC(=O)[C@H](CC(C)C)NC(=O)[C@@H](N)CCCCN)NC(=O)[C@H](CC(C)C)NC(=O)[C@@H](N)CCCCN)C(N)=O [Compound G2KLC10, (KL)4(KKL)2(KKL-CO(CH2)8CH3)] (I: H-KLK([Leu-Lys])KLKKLK(Decanoyl)-NH2 / II: H-KLK([Leu-Lys])KL; amide I:6-II:C; N-terminus assumed) | 4 (≈ 1.69 µM) | 8 µg/mL (≈ 3.37 µM) | 8 to 16 | 16 (≈ 6.74 µM) | 64 (≈ 27 µM) | 8 (≈ 3.37 µM) | 64 (≈ 27 µM) | 4 (≈ 1.69 µM) | 
2 | CCCCCCCCCC(=O)NCCCC[C@H](NC(=O)[C@H](CC(C)C)NC(=O)[C@H](CCCCN)NC(=O)[C@H](CCCCNC(=O)[C@H](CC(C)C)NC(=O)[C@H](CCN)NC(=O)[C@H](CCCCNC(=O)[C@H](Cc1ccccc1)NC(=O)[C@@H](N)CCCN)NC(=O)[C@H](Cc1ccccc1)NC(=O)[C@@H](N)CCCN)NC(=O)[C@H](CC(C)C)NC(=O)[C@H](CCN)NC(=O)[C@H](CCCCNC(=O)[C@H](Cc1ccccc1)NC(=O)[C@@H](N)CCCN)NC(=O)[C@H](Cc1ccccc1)NC(=O)[C@@H](N)CCCN)C(N)=O [TNS-122, (OrnF)4(KDabL)2(KKLK-CO(CH2)8CH3] (I: H-[Orn]FK([Phe-Orn])[Dab]LKKLK(Decanoyl)-NH2 / II: H-[Orn]FK([Phe-Orn])[Dab]L; amide I:6-II:C; N-terminus assumed) | 2 (≈ 0.834 µM) | 4 (8) μg/mL | 8 | 8 to 16 | 8 to 16 | 4 (≈ 1.67 µM) | 32 (≈ 13.3 µM) | 4 (≈ 1.67 µM) | 8 (≈ 3.34 µM)
3 | CCCCCCCCCC(=O)NCCCC[C@H](NC(=O)[C@H](CC(C)C)NC(=O)[C@H](CCCCN)NC(=O)[C@H](CCCCNC(=O)[C@H](Cc1ccccc1)NC(=O)[C@H](CCN)NC(=O)[C@H](CCCCNC(=O)[C@H](CC(C)C)NC(=O)[C@@H](N)CCCN)NC(=O)[C@H](CC(C)C)NC(=O)[C@@H](N)CCCN)NC(=O)[C@H](Cc1ccccc1)NC(=O)[C@H](CCN)NC(=O)[C@H](CCCCNC(=O)[C@H](CC(C)C)NC(=O)[C@@H](N)CCCN)NC(=O)[C@H](CC(C)C)NC(=O)[C@@H](N)CCCN)C(N)=O [TNS-123, (OrnL)4(KDabF)2(KKLK-CO(CH2)8CH3)] (I: H-[Orn]LK([Leu-Orn])[Dab]FKKLK(Decanoyl)-NH2 / II: H-[Orn]LK([Leu-Orn])[Dab]F; amide I:6-II:C; N-terminus assumed) | 2 (≈ 0.859 µM) | 4 to 8 µg/mL | 8 to 16 | 32 (≈ 13.7 µM) | 32 to 64 | 16 (≈ 6.87 µM) | >64 | 4 (≈ 1.72 µM) | 8 (≈ 3.43 µM)
4 | CCCCCCCCCC(=O)NCCCC[C@H](NC(=O)[C@H](CC(C)C)NC(=O)[C@H](CCCCN)NC(=O)[C@H](CCCCNC(=O)[C@H](CC(C)C)NC(=O)[C@H](CCN)NC(=O)[C@H](CCCCNC(=O)[C@H](Cc1ccccc1)NC(=O)[C@@H](N)CCCNC(=N)N)NC(=O)[C@H](Cc1ccccc1)NC(=O)[C@@H](N)CCCNC(=N)N)NC(=O)[C@H](CC(C)C)NC(=O)[C@H](CCN)NC(=O)[C@H](CCCCNC(=O)[C@H](Cc1ccccc1)NC(=O)[C@@H](N)CCCNC(=N)N)NC(=O)[C@H](Cc1ccccc1)NC(=O)[C@@H](N)CCCNC(=N)N)C(N)=O [TNS-124, (RF)4(KDabL)2(KKLK-CO(CH2)8CH3)] (I: H-RFK([Phe-Arg])[Dab]LKKLK(Decanoyl)-NH2 / II: H-RFK([Phe-Arg])[Dab]L; amide I:6-II:C; N-terminus assumed) | 4 to 8 | 8 µg/mL (≈ 3.12 µM) | 16 to 32 | 8 to 16 | 8 (≈ 3.12 µM) | 8 (≈ 3.12 µM) | 32 (≈ 12.5 µM) | 4 to 8 | 16 to 32
